{
  "source": "patent US5902810A",
  "about": "“Pteridine derivatives as no synthase inhibitors” (Hoechst Aktiengesellschaft, priority 1994, dated 1999)",
  "data": [
    {"target": "T1, purified NO synthase from pig cerebellum (Sus scrofa, UniProt F1RKF2)", "T1 construct": "purified NO synthase from pig cerebellum; from tissue; host or cells: pig cerebellum", "test": "Inhibition of the activity of purified nitric oxide synthase (NOS), 3H-L-citrulline formation, enzyme from pig cerebellum", "assay_type": "biochemical", "details": "0.25 h, substance 100 μM, antagonistic test in the presence of 2 μM tetrahydrobiopterin, 37° C., 15 minutes, read-out: Citrulline formation (% of the control)", "units": {"remaining activity at 100 µM": "%"}, "description": "In this assay for purified NO synthase (NOS) the coproduct L-citrulline obtained during NO formation is determined quantitatively. This is carried out by the use of ^3 H-radiolabeled L-arginine as a substrate of the enzyme reaction, which is reacted to give ^3 H-L-citrulline and NO. After the enzyme incubation is complete, resulting L-citrulline is removed from unused L-arginine by means of ion-exchange chromatography of the reaction mixture; the ^3 H-activity determined by liquid scintillation measurement then corresponds to the amount of L-citrulline.\nThe coproduct L-citrulline obtained during the formation of NO by purified NOS is determined quantitatively in this activity assay. The substrate of the enzyme reaction employed is ^3 H-radiolabeled L-arginine, which is reacted to give ^3 H-L-citrulline and NO. After the enzyme incubation is complete, resulting L-citrulline is removed from unused L-arginine by means of ion-exchange chromatography of the reaction mixture; the ^3 H activity measured by liquid scintillation then corresponds to the amount of L-citrulline, which is a direct measure of the activity of NOS.\nThe base medium for carrying out the enzyme reaction is TE buffer (triethanolamine, EDTA, pH 7.0). The final volume of each incubation is 100 μl. The reaction mixture is obtained by mixing the following 6 components on ice:\n\"REA mix\" (pH 7.0), which contains triethanolamine, calcium chloride, magnesium chloride, EDTA, L-arginine, calmodulin and flavine adenine dinucleotide (FAD);\n2. freshly prepared stock solution of β-nicotinamide adenine dinucleotide phosphate, reduced form (NADPH); […]\nTriethanolamine 50 mM, EDTA 0.5 mM, CaCl2 226 μM, MgCl2 477 μM, L-arginine 50 μM, calmodulin 0.5 μM, FAD 5 μM, NADPH 1 mM, BH4 (if added) 2 μM, substance to be tested 100 μM. […] 9 ml of scintillator solution are added to the 3 ml aqueous measuring solution and the homogeneous mixture is measured for 1 minute per sample in a Tricarb 2500 TR (Packard) liquid scintillation counter. […]", "values": [
      {"compound": "CC(NC(=O)OCc1ccccc1)C(=O)OCc1cnc2nc(N)[nH]c(=O)c2n1", "note": "(stereo not shown) [Example 21]", "remaining activity at 100 µM": 60.8},
      {"compound": "CSCc1cnc2nc(N)[nH]c(=O)c2n1", "note": "[Example 37]", "remaining activity at 100 µM": 22.9},
      {"compound": "Nc1nc2ncc(COC(=O)C(Cc3ccccc3)NC(=O)OCc3ccccc3)nc2c(=O)[nH]1", "note": "(stereo not shown) [Example 23]", "remaining activity at 100 µM": 2.5}
    ]},
    {"test_system": "NO synthase", "test": "not given", "details": "literature reports (Kwon et al.; Giovanelli et al.; Hevel and Marletta); cited from earlier work", "values": [
      {"compound": "Nc1nc2nccnc2c(=O)[nH]1", "note": "[pterin]", "Effect on NO production / NO synthase activity": "no significant effects"},
      {"compound": "Nc1nc2ncc(CNc3ccc(C(=O)N[C@@H](CCC(=O)O)C(=O)O)cc3)nc2c(=O)[nH]1", "note": "[folic acid]", "Effect on NO production / NO synthase activity": "no significant effects"},
      {"compound": "C[C@H](O)[C@H](O)c1cnc2nc(N)[nH]c(=O)c2n1", "note": "[biopterin]", "Effect on NO production / NO synthase activity": "no significant effects"},
      {"compound": "C[C@H](O)[C@H](O)[C@H]1CNc2nc(N)[nH]c(=O)c2N1", "note": "[tetrahydrobiopterin]", "Effect on NO production / NO synthase activity": "stimulates NO production"},
      {"compound": "CC1CNc2nc(N)[nH]c(=O)c2N1", "note": "(stereo not shown) [6-methyl-5,6,7,8-tetrahydropterin]", "Effect on NO production / NO synthase activity": "increase in NO synthase activity"},
      {"compound": "C[C@H](O)[C@H](O)C1=Nc2c(nc(N)[nH]c2=O)NC1", "note": "[7,8-dihydrobiopterin]", "Effect on NO production / NO synthase activity": "Stimulation of NO production"}
    ]},
    {"test_system": "purified NO synthase from pig liver", "test": "Inhibition of the activity of purified nitric oxide synthase (NOS), 3H-L-citrulline formation, enzyme from pig liver", "assay_type": "biochemical", "details": "substance 100 μM, antagonistic test in the presence of 2 μM tetrahydrobiopterin, 37° C., 15 minutes", "source_text": "The inhibition of NO release by the compounds of the formula I can be determined by an activity assay based on the studies of Bredt and Snyder and also Schmidt et al. (see D. S. Bredt and S. S. Snyder, Isolation of nitric oxide synthase, a calmodulin-requiring enzyme, Proc. Natl. Acad. Sci. USA 87 (1990), 682; H. H. H. W. Schmidt et al., Purification of a soluble isoform of guanylyl cyclase-activating factor synthase, Proc. Natl. Acad. Sci. USA 88 (1991), 365). In this assay for purified NO synthase (NOS) the coproduct L-citrulline obtained during NO formation is determined quantitatively. […] After the enzyme incubation is complete, resulting L-citrulline is removed from unused L-arginine by means of ion-exchange chromatography of the reaction mixture; the ^3 H-activity determined by liquid scintillation measurement then corresponds to the amount of L-citrulline. […]\nThe coproduct L-citrulline obtained during the formation of NO by purified NOS is determined quantitatively in this activity assay. […] After the enzyme incubation is complete, resulting L-citrulline is removed from unused L-arginine by means of ion-exchange chromatography of the reaction mixture; the ^3 H activity measured by liquid scintillation then corresponds to the amount of L-citrulline, which is a direct measure of the activity of NOS. […]", "values": [
      {"compound": "N=c1[nH]c(N)nc2ncc(CN)nc12", "note": "[Example 76]", "Citrulline formation (% of the control)": "22.4 % of the control"}
    ]}
  ]
}
